System: patients with chronic GVHD
Experiment: Example 2: phase II randomized study of belumosudil (KD025-213) in cGVHD, efficacy and safety;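 also: allogeneic HCT recipients aged ≥12 years with persistent cGVHD after two to five earlier systemic treatment lines, responses judged by site investigators, 12-month analysis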
Settings: for Clinically significant improvement from baseline (LSS), Overall: decrease ≥7 points in LSS score
[1] = Liver-related AE, 200 mg twice daily (n = 66)
[2] = Liver-related AE, Total (N = 132)
[3] = Total (N = 132), of subjects with organ involved
[4] = Total, N=132, mITT, listed as Belumosudil

From the text: Concomitant treatment with supportive care therapies for chronic GVHD was permitted. […] Initiation of new systemic chronic GVHD therapy while on study was not permitted.
Eligible subjects were allogeneic hematopoietic cell transplant recipients aged ≥12 years with persistent cGVHD manifestations after receiving 2 to 5 prior systemic lines of therapy. Subjects were required to be receiving stable corticosteroid therapy for 2 weeks prior to screening and to have a Karnofsky or Lansky Performance Status Scale score≥60. Certain concurrent immunosuppressive medications were allowed because drug-drug interactions were not anticipated.
Randomization was stratified (1:1) by cGVHD severity and prior exposure to ibrutinib.
All responses were assessed by the study site investigators. Secondary end points included duration of response (DOR), time to response, changes in LSS summary score, failure-free survival (FFS), corticosteroid dose reductions, and overall survival (OS). DOR was measured from the time of initial PR or CR until documented progression from best response of cGVHD, time from initial response to start of additional systemic cGVHD therapy, or death. The 7-day LSS summary score was calculated based on the developer recommendations and was compared with the score from baseline; an improvement ≥7 points was considered clinically meaningful. […] Relative dose intensity (RDI) was used as a surrogate measure of drug tolerability and was defined as actual dose intensity/planned dose intensity, where dose intensity was defined as the cumulative dose over the duration of exposure (mg/d). Actual dose intensity captured the sum of actual doses received over the duration of exposure and incorporated dose reductions and/or interruptions.
The Hochberg procedure was used for multiplicity adjustment for the primary end point of best ORR. […] CI was calculated using the Clopper-Pearson interval (exact) method.

SMILES: CC(C)NC(=O)COc1cccc(-c2nc(Nc3ccc4[nH]ncc4c3)c3ccccc3n2)c1 [belumosudil, 2-{3-[4-(1H-indazol-5-ylamino)-2-quinazolinyl]phenoxy}-N-(propan-2-yl) acetamide]
- Bilirubin conjugated increased [1]: 0%
- Blood alkaline phosphatase increased [1]: (9) %
- GGT increased [1]: (15) %
- Hypoalbuminemia [1]: (3) %
- LFT increased [1]: 0%
- Transaminases increased [1]: (2) %
- ALT increased [2]: (8) %
- AST increased [2]: (10) %
- Bilirubin conjugated increased [2]: (1) %
- Blood alkaline phosphatase increased [2]: (8) %
- GGT increased [2]: (12) %
- Hypoalbuminemia [2]: (3) %
- LFT increased [2]: (1) %
- Transaminases increased [2]: (2) %
- Clinically significant improvement from baseline (LSS), Nonresponder (Total): (31) %
- Clinically significant improvement from baseline (LSS), Responder (Total): (70) %
- Any AE (Total (N = 132)): (99) %
- Drug-related AEs (Total (N = 132)): (67) %
- Drug-related SAEs (Total (N = 132)): (5) %
- Grade ≥3 AEs (Total (N = 132)): (54) %
- Liver-related AEs (Total (N = 132)): (24) %
- SAEs (Total (N = 132)): (38) %
- CR, Esophagus [3]: (45) %
- CR, Eyes [3]: (14) %
- CR, Joints and fascia [3]: (20) %
- CR, Liver [3]: (31) %
- CR, Lower GI [3]: (62) %
- CR, Lungs [3]: (13) %
- CR, Mouth [3]: (44) %
- CR, Skin [3]: (16) %
- CR, Upper GI [3]: (48) %
- ORR, Esophagus [3]: (45) %
- ORR, Eyes [3]: (42) %
- ORR, Joints and fascia [3]: (71) %
- ORR, Liver [3]: (39) %
- ORR, Lower GI [3]: (69) %
- ORR, Lungs [3]: (26) %
- ORR, Mouth [3]: (56) %
- ORR, Skin [3]: (37) %
- ORR, Upper GI [3]: (52) %
- PR, Esophagus [3]: 0%
- PR, Eyes [3]: (28) %
- PR, Joints and fascia [3]: (51) %
- PR, Liver [3]: (8) %
- PR, Lower GI [3]: (8) %
- PR, Lungs [3]: (13) %
- PR, Mouth [3]: (11) %
- PR, Skin [3]: (21) %
- PR, Upper GI [3]: (4) %
- Deaths (Total (N = 132), six during LTFU): (11) %
- CR, within 6 mo of treatment (Total, N=132, mITT): (2) %
- CR, within 12 mo of treatment (Total, N=132, mITT): (5) %
- FFS at 6 mo (Total, N=132, mITT): 75%
- FFS at 12 mo (Total, N=132, mITT): 56%
- Mean change in CS dose from baseline, Overall (Total, N=132, mITT): −45%
- Median CS reduction from baseline to greatest reduction (Total, N=132, mITT): 50%
- ORR (best, any time) (Total, N=132, mITT): (76) %
- ORR for responses occurring within 6 mo of treatment (Total, N=132, mITT): (72) %
- ORR for responses occurring within 12 mo of treatment (Total, N=132, mITT): (75) %
- PR, within 6 mo of treatment (Total, N=132, mITT): (70) %
- PR, within 12 mo of treatment (Total, N=132, mITT): (71) %
- Proportion with CS reduction (Total, N=132, mITT): 65%
- CS discontinuation [4]: 21) %
- Proportion with CS reduction [4]: (65) %
- Clinically significant improvement from baseline (LSS), Overall (200 mg daily, n=66, mITT): 59%
- Clinically significant improvement from baseline (LSS), Overall (200 mg daily, n=66, mITT, listed as Belumosudil): (59) %
- Clinically significant improvement from baseline (LSS), Overall (200 mg twice daily, n=66, mITT): 62%
- Clinically significant improvement from baseline (LSS), Overall (200 mg twice daily, n=66, mITT, listed as Belumosudil): (62) %
- Clinically significant improvement from baseline (LSS), Overall (Total, N=132, mITT): (61) %
- Grade ≥3 anemia (in vivo): 3%
- Grade ≥3 cytopenias (in vivo): < 4%
- Grade ≥3 neutropenia (in vivo): 2%
- Grade ≥3 thrombocytopenia (in vivo): 2%
- SAE: pneumonia (in vivo): 7%
- discontinued because of overall AEs (in vivo): 21%
- discontinued because of possible drug-related AEs (in vivo): 12%
- discontinued because of progression of cGVHD (in vivo): 16%
- discontinued because of progression of underlying malignant disease (in vivo): 4%
- grade 3 or 4 AE: hyperglycemia (in vivo): 5%
- grade 3 or 4 AE: hypertension (in vivo): 6%
- grade 3 or 4 AE: pneumonia (in vivo): 8%
- liver-related AE: increased GGT (in vivo): 12%
- subjects who discontinued calcineurin inhibitor (CNI) therapy (in vivo): 22%
- subjects who received an RDI >95% (in vivo): Eighty-one
- subjects with >1 SAE (in vivo): Thirty eight
- subjects with increased liver function tests (LFTs) (in vivo): Twenty-four
- organ-specific best ORR, esophagus (mITT, pooled): 45%
- organ-specific best ORR, eyes (mITT, pooled): 42%
- organ-specific best ORR, joints/fascia (mITT, pooled): 71%
- organ-specific best ORR, liver (mITT, pooled): 39%
- organ-specific best ORR, lower GI tract (mITT, pooled): 69%
- organ-specific best ORR, lungs (mITT, pooled): 26%
- organ-specific best ORR, mouth (mITT, pooled): 55%
- organ-specific best ORR, skin (mITT, pooled): 37%
- organ-specific best ORR, upper gastrointestinal (GI) tract (mITT, pooled): 52%
- nonrelapse mortality (NRM) rate (overall): 7%
- share of responses seen after 6 to 12 months of treatment (pooled): 9%
- ORRs observed in all subgroups (pooled across arms, mITT): 61-85%

Reference: US12097202B2 (Kadmon Corporation, LLC, priority 2022, dated 2024)
